This passage reports Activity results from ChEMBL document CHEMBL4665687, “Isolation of 2-Alkyl-4-quinolones with Unusual Side Chains from a Chinese Pseudomonas aeruginosa Isolate” (J Nat Prod, 2020).

The source made the active and inactive calls. The calls are words filed in the database; no cut-off is given here.

The subject of assay [1] is Staphylococcus epidermidis. As to the kind of experiment: Antibacterial activity against Staphylococcus epidermidis. Format: functional, organism-based.
Another assay relates to Staphylococcus aureus. The assay is described as follows: Antibacterial activity against Staphylococcus aureus. Format: functional, organism-based.
In another assay the test system is HeLa. The assay is described as follows: Cytotoxicity against human HeLa cells assessed as reduction in cell viability. Format: functional, cell-based.

Take `CCCCC/C=C/c1cc(=O)c2ccccc2[nH]1`: the result (in assay [1]; in the assay on Staphylococcus aureus) was Active. Further, the outcome with HeLa was inactive.

Take `CS/C=C/c1cc(=O)c2ccccc2[nH]1`: the outcome (in assay [1]; in the assay on Staphylococcus aureus) was Active. For the same compound, the result with HeLa was inactive.

For the compound `CCCCCCCCCc1cc(=O)c2ccccc2[nH]1`, the result (in assay [1]; in the assay with Staphylococcus aureus) was Active. In addition, the outcome with HeLa was inactive.

For `CCCCCCCc1cc(O)c2ccccc2[n+]1[O-]`, the outcome (in assay [1]; in the assay with Staphylococcus aureus) was Active. Besides, the result in the assay on HeLa was inactive.

Regarding `CCCCCC/C=C/Cc1cc(=O)c2ccccc2[nH]1`, the outcome (in assay [1]; in the assay with Staphylococcus aureus) was Active. In addition, in the assay with HeLa, the result was inactive.

With `CCCCCCCc1cc(=O)c2ccccc2[nH]1`, the outcome (in assay [1]; in the assay on Staphylococcus aureus) was Active. The outcome with HeLa was inactive.

For the compound `CC(C)CCCCc1cc(=O)c2ccccc2[nH]1`, the result (in assay [1]; in the assay with Staphylococcus aureus) was Active. Moreover, the result in the assay with HeLa was inactive.

Take `CCCCCC/C=C\CCCc1cc(=O)c2ccccc2n1O`: the result (in assay [1]; with Staphylococcus aureus) was Active. Moreover, the result in the assay on HeLa was inactive.

For `O=c1cc(Cc2ccccc2)[nH]c2ccccc12`, the result (in assay [1]; in the assay on Staphylococcus aureus) was Active. Besides, the outcome with HeLa was inactive.

Regarding `CCCC/C=C/CCCc1cc(=O)c2ccccc2[nH]1`, the result (in assay [1]; in the assay with Staphylococcus aureus) was Active. Further, the outcome in the assay on HeLa was inactive.

In the case of `CCCCCCC/C=C/c1cc(=O)c2ccccc2[nH]1`, the result (in assay [1]; in the assay on Staphylococcus aureus) was Active. In addition, in the assay with HeLa, the outcome was inactive.

For `CC/C(C)=C/Cc1cc(=O)c2ccccc2[nH]1`, the result (in assay [1]; in the assay on Staphylococcus aureus) was Active. Besides, the outcome in the assay on HeLa was inactive.

For the compound `CCCCCCCCc1cc(=O)c2ccccc2[nH]1`, the result (in assay [1]; with Staphylococcus aureus) was Active. The outcome in the assay with HeLa was inactive.

As for `CCCCCC/C=C\CCCc1cc(=O)c2ccccc2[nH]1`, the outcome (in assay [1]; in the assay on Staphylococcus aureus) was Active. Further, the outcome with HeLa was inactive.

Turning to `CCCC/C=C/Cc1cc(=O)c2ccccc2[nH]1`, the result (in assay [1]; with Staphylococcus aureus) was Active. Further, in the assay with HeLa, the result was inactive.

In the case of `CCCCCCCCC/C=C/c1cc(=O)c2ccccc2[nH]1`, the result (in assay [1]; in the assay with Staphylococcus aureus) was Active. Further, in the assay on HeLa, the outcome was inactive.
